Test results: US7622500B2, “Antiparasitic agents” (Pfizer Limited, priority 2007, dated 2009)

Each compound was assayed on Haemonchus contortus L3 (assay: Haemonchus contortus L3 (HcL3) in vitro test). Settings: minimum effective dose, exsheathed L3 larvae, 37° C., observed 2 hrs to 4 days, dose responses 100-0.1 μg/ml, n=2, read-out: H.c. (L3) MED.
Type: cell-based
Experimental: The Haemonchus contortus L3 (HcL3) test is used to measure the biological activities of the compounds claimed. The assay involves in vitro testing against H. contortus conducted according to the following general procedure.
HcL3 larvae were collected from infected sheep and, after cleaning, stored in water at 12° C. for up to one month. Viable infective larvae were exsheathed using 10% hypochlorite in Glucose Tyrodes balanced salt solution containing antibiotics and resuspended in basal medium (20 g/l bacto-tryptone, 5 g/l yeast extract, 57 g/l glucose, 0.8 g/l di-Potassium hydrogen orthophosphate, 0.8 g/l potassium dihydrogen orthophosphate and […] Hepes with antibiotics). 95 μl worm suspension was added to each well of a 96 well plate.
Test compounds were dissolved in dimethylsulfoxide to give a working stock solution of 20 mg/ml. The stock concentration was diluted 1:10 in Basal media to give 2.0 mg/ml (10% DMSO). 5 μl of the stock compound solution was added to the worm suspension to give a final concentration of 100 μg/ml. Plates were sealed with pressure sensitive film and incubated at 37° C. Observations were made 2 hrs, 24 hrs, 48 hrs, 72 hrs and 4 days post-treatment using an inverted microscope. Activity was recorded if a significant proportion of the worms were dead or adversely affected by the compound when compared to the control well containing 1% DMSO. Compounds were initially tested at 100 μg/ml, wherefrom relevant dose responses (100, 30, 10, 3, 1, 0.3, 0.1 μg/ml) were conducted in duplicate experiments to generate n=2. Data was recorded as minimum effective dose.

`CC(C#N)(NC(=O)c1ccc(OC(F)(F)F)cc1)C1Cc2cc(C#N)ccc2O1` (centres unmarked) [Example 1a, N-[1-Cyano-1-(5-cyano-2,3-dihydro-1-benzofuran-2-yl)ethyl]-4-(trifluoromethoxy)benzamide] and `CC(C#N)(NC(=O)c1ccc(SC(F)(F)F)cc1)C1Cc2cc(C#N)ccc2O1` (centres unmarked) [Example 2, N-[1-Cyano-1-(5-cyano-2,3-dihydro-1-benzofuran-2-yl)ethyl]-4-[(trifluoromethyl)thio]benzamide] are the same in minimal effective concentration: 3 µg/mL for the first, 3 µg/mL for the second.

Compared with `CC(C#N)(NC(=O)c1ccc(OC(F)(F)F)cc1)C1Cc2ccccc2O1` (centres unmarked) [Example 3, N-[1-Cyano-1-(2,3-dihydro-1-benzofuran-2-yl)ethyl]-4-(trifluoromethoxy)benzamide], `CC(C#N)(NC(=O)c1ccc(OC(F)(F)F)cc1)C1Cc2cccc(C#N)c2O1` (centres unmarked) [Example 6, N-[1-Cyano-1-(7-cyano-2,3-dihydro-1-benzofuran-2-yl)ethyl]-4-(trifluoromethoxy)benzamide] is 3-fold lower in minimal effective concentration: 30 µg/mL for the first, 10 µg/mL for the second.

Going from `CC(C#N)(NC(=O)c1ccc(C(F)(F)F)cc1)C1Cc2cc(Cl)ccc2O1` (centres unmarked) [Example 5, N-[1-(5-Chloro-2,3-dihydro-1-benzofuran-2-yl)-1-cyanoethyl]-4-(trifluoromethyl)benzamide] to `CC(C#N)(NC(=O)c1ccc(SC(F)(F)F)cc1)C1Cc2cccc(C#N)c2O1` (centres unmarked) [Example 7, N-[1-Cyano-1-(7-cyano-2,3-dihydro-1-benzofuran-2-yl)ethyl]-4-[(trifluoromethyl)thio]benzamide], the minimal effective concentration falls from 30 µg/mL to 10 µg/mL (3-fold).

`CC(C#N)(NC(=O)c1ccc(OC(F)(F)F)cc1)C1Cc2cc(C#N)cc(Cl)c2O1` (centres unmarked) [Example 8, N-[1-(7-Chloro-5-cyano-2,3-dihydro-1-benzofuran-2-yl)-1-cyanoethyl]-4-(trifluoromethoxy)benzamide] and `CC(C#N)(NC(=O)c1ccc(S(F)(F)(F)(F)F)cc1)C1Cc2cc(C#N)cc(Cl)c2O1` (centres unmarked) [Example 9, N-[1-(7-Chloro-5-cyano-2,3-dihydro-1-benzofuran-2-yl)-1-cyanoethyl]-4-(pentafluorothio)benzamide] cannot be ordered by minimal effective concentration: under 1 µg/mL for the first, under 1 µg/mL for the second.
